Assay results taken from publication PMC11596599, “Structure Characterization of Four New Sesquiterpene Pyridine Alkaloids from Tripterygium wilfordii Hook. f. and Anti-Inflammatory Activity Evaluations” (Molecules, 2024).
Entries after “also recorded” stand apart in the source; their conditions may differ. Read-outs that look alike come from different tables or passages of the source. Each block holds one compound with its values, some of them ahead of it.

Tests used:
nitric oxide generation = settings: cited from earlier work; for IC50: LPS induced RAW264.7 cells ref 24, read-out: IC50 (nitric oxide inhibitory effects); for suppressed nitric oxide generation: LPS induced RAW264.7 cells, concentration of 5 μM ref 23
[1] = Cell viability by CCK-8 method; assay type: cell-based; settings: human; HEK293 cells, CCK-8, compounds at 100 μM, 48 h; read-out: Cell Viability (%) (n = 3)
Method: (§1) The effect of the test compounds on the viability of HEK293 cells was determined by the CCK-8 method. Briefly, HEK293 cells were inoculated into 96-well plates with 5 × 10^3 cells per well and incubated at 37 °C with 5% CO2 for 24 h. The cells were treated with test compounds and incubated for 48 h; then, 20 μL of the CCK-8 reagent was added into each well and incubated for another 2 h. The absorbance at 450 nm was measured with a microplate reader to further calculate the cell viability. All experiments were performed in triplicate.

NF-κB pathway [2] = test: NF-κB luciferase reporter assay in LPS-induced HEK293/NF-κB-Luc cells; assay type: cell-based; settings: for inhibition at 100 µM / IC50: Homo sapiens; for inhibition at 100 µM: HEK293, 24 h, read-out: NF-κB Inhibitory Rates (%) (n = 3); for IC50: read-out: IC50 (NF-κB inhibition)
Method: Anti-inflammation bioassays were carried out using the HEK293/NF-κB-Luc cells, which were produced as the described procedure. The HEK293/NF-κB-Luc cells were inoculated into 48-well plates and cultured in DMEM supplemented with 10% fetal bovine serum (FBS) for 16 h. Following treatment with the tested compounds, the cells were simulated with 1 μg/mL of LPS for a duration of 24 h. Then, the cells were rinsed twice with phosphate-buffered saline (PBS, pH 7.4) prior to lysing with passive lysis buffer. Then, the inhibitory effects on NF-κB were analyzed using the luciferase assay system according to the manufacturer’s instructions. All the experiments were performed in triplicate.

HEK293 cells = test: Cell viability by CCK-8 method; assay type: cell-based; settings: concentration of 100 μM
Method: as §1

[3] = tested on: cytokines (TNF-α, IL-1β, IL-8, IL-2, IL-4, and IFN-γ); set-up: method as in PMID 11374948; settings: 10 μg/mL, IL-8, IL-2, IL-4, IFN-γ, inhibitory rates reaching 100% in some cases ref 25; cited from earlier work
NF-κB pathway [4] = tested on: NF-κB pathway; set-up: method as in PMID 36364101; settings: LPS-induced HEK293/NF-κB-Luc cells; previous study ref 26; read-out: IC50 (inhibitory activity on the NF-κB pathway); cited from earlier work
[5] = compounds at 100 μM, 1 μg/mL LPS 24 h

Compound: CC(=O)OC[C@]12[C@H](OC(C)=O)C(=O)[C@@H]3[C@@H](OC(C)=O)[C@@]14O[C@@]3(C)COC(=O)c1cccnc1CCC(C)(OC(C)=O)C(=O)O[C@@H]([C@H](OC(=O)c1ccoc1)[C@@H]2OC(C)=O)[C@]4(C)O (stereo partly shown) [9′-O-acetyl-7-deacetoxy-7-oxowilfortrine]
IC50 (nitric oxide generation): 2.59 ± 3.59 µM

Compound: CC(=O)OCC12C(OC(C)=O)C(OC(C)=O)C3C(OC(C)=O)C14OC3(C)COC(=O)c1cnccc1CCC(C)(O)C(=O)OC(C(OC(=O)c1ccco1)C2OC(C)=O)C4(C)O (stereo not shown) [Compound 2, wilfordinine H]
viability at 48 h, 100 µM [1]: 94.2 ± 5.75% | inhibition at 100 µM (NF-κB pathway [2]; [5]): 33.9 ± 2.06%

Compound: CC(=O)OCC12C(OC(C)=O)C(O)C3OC(=O)C(C)C(C)c4ccncc4C(=O)OCC4(C)OC1(C(O)C4C(OC(C)=O)C2OC(C)=O)C3(C)O (stereo not drawn) [Compound 4, 1β,7β,8β,11-tetraacetoxy-1β,4α,5α-trihydroxy-3α,15-[2′,3′-dimethyl-3′-(3″-carboxy-4″-pyridyl)propanic acid] dicarbolactone dihydro-β-agarofuran]
influence on cell viability (in words) (HEK293 cells): no influence on the cell viability; also recorded: no cytotoxicity | viability at 48 h, 100 µM [1]: 100 ± 2.55% | inhibition at 100 µM (NF-κB pathway [2]; [5]): > 45% | IC50 (NF-κB pathway [2]): 1.64 µM

IC50 (NF-κB pathway [2]): 9.05 µM
Compound: CC(=O)OC[C@]12[C@H](OC(C)=O)[C@H](OC(C)=O)[C@@H]3[C@@H](OC(C)=O)[C@@]14O[C@@]3(C)COC(=O)c1cnccc1C(C)C(C)C(=O)O[C@@H]([C@H](O)[C@@H]2OC(C)=O)[C@]4(C)O (stereo partly shown) [Compound 6, wilfordinine A]
influence on cell viability (in words) (HEK293 cells): no influence on the cell viability; also recorded: no cytotoxicity | viability at 48 h, 100 µM [1]: 92.4 ± 7.62% | inhibition at 100 µM (NF-κB pathway [2]; [5]): > 45% | suppressed nitric oxide generation (nitric oxide generation): 59.0%

Compound: CC(=O)OCC12C(OC(C)=O)C(OC(C)=O)C3C(OC(C)=O)C14OC3(C)COC(=O)c1cnccc1C(C)C(C)(O)C(=O)OC(C(OC(C)=O)C2OC(C)=O)C4(C)O (stereo not shown) [Compound 7, wilfordinine B]
viability at 48 h, 100 µM [1]: 95 ± 36.2% | inhibition at 100 µM (NF-κB pathway [2]; [5]): 32.1 ± 5.7%

Compound: CC(=O)OCC12C(OC(C)=O)C(OC(C)=O)C3C(OC(C)=O)C14OC3(C)COC(=O)c1cnccc1C(C)C(C)C(=O)OC(C(OC(C)=O)C2OC(C)=O)C4(C)O (stereo not shown) [Compound 8, peritassine A]
viability at 48 h, 100 µM [1]: 93.9 ± 6.1% | inhibition at 100 µM (NF-κB pathway [2]; [5]): 19.1 ± 3.2% | suppressed nitric oxide generation (nitric oxide generation): 8.2%

Compound: Cc1ccc(NCCCc2ccccc2)c(N)c1 [JSH23, reference compound]
NF-κB Inhibitory Rates (%) (n = 3) (NF-κB pathway [2]; [5]): 74.56 ± 1.83%

Compound: CC(=O)OC[C@]12[C@H](OC(C)=O)[C@H](OC(C)=O)[C@@H]3[C@@H](OC(=O)c4ccccc4)[C@@]14O[C@@]3(C)COC(=O)c1cccnc1C(C)C(C)C(=O)O[C@@H]([C@H](OC(C)=O)[C@@H]2OC(C)=O)[C@]4(C)O (stereo partly shown) [congorinine E-1]
inhibitory effects on the production of cytokines (in words) [3]: significant inhibitory effects

Compound: CC(=O)OC[C@]12[C@H](OC(C)=O)[C@H](OC(C)=O)[C@@H]3[C@@H](OC(=O)c4ccccc4)[C@@]14O[C@@]3(C)COC(=O)c1cccnc1C(C)C(C)C(=O)O[C@@H]([C@H](OC(C)=O)[C@@H]2OC(=O)c1ccccc1)[C@]4(C)O (stereo partly shown) [ebenifoline E-11]
inhibitory effects on the production of cytokines (in words) [3]: significant inhibitory effects

Compound: CC(=O)OC[C@]12[C@H](OC(C)=O)[C@H](OC(C)=O)[C@@H]3[C@@H](OC(C)=O)[C@@]14O[C@@]3(C)COC(=O)c1cccnc1CCC(C)C(=O)O[C@@H]([C@H](OC(C)=O)[C@@H]2OC(C)=O)[C@]4(C)O (stereo partly shown) [euonine]
suppressed nitric oxide generation (nitric oxide generation): 54.7%

Compound: CC(=O)OC[C@]12[C@H](OC(C)=O)[C@H](OC(C)=O)[C@@H]3[C@@H](OC(C)=O)[C@@]14O[C@@]3(C)COC(=O)c1cccnc1CCC(C)(O)C(=O)O[C@@H]([C@H](O)[C@@H]2OC(C)=O)[C@@]4(C)O (stereo partly shown) [tripfordine A]
IC50 (NF-κB pathway [4]): 0.74 µM

Compound: CC(=O)OCC12C(OC(C)=O)C(=O)C3C(OC(C)=O)C14OC3(C)COC(=O)c1cccnc1CCC(C)(OC(=O)c1ccoc1)C(=O)OC(C(O)C2OC(C)=O)C4(C)O (stereo not shown) [tripterygiumine S]
IC50 (nitric oxide generation): 23.8 ± 4.38 µM

Compound: CC(=O)OC[C@]12[C@H](OC(C)=O)[C@H](OC(C)=O)[C@@H]3[C@@H](OC(C)=O)[C@@]14O[C@@]3(C)COC(=O)c1cccnc1CCC(C)C(=O)O[C@@H]([C@H](OC(=O)c1ccccc1)[C@@H]2OC(C)=O)[C@]4(C)O (stereo partly shown) [wilforine]
IC50 (NF-κB pathway [4]): 15.7 µM

Compound: wilfordatine E
IC50 (NF-κB pathway [4]): 8.75 µM
